The source of these data is US20220235043A1, “SUBSTITUTED SULFONAMIDE PYRROLOPYRIDINES AS JAK INHIBITORS” (ACLARIS THERAPEUTICS, INC., priority 2019, published 2022).

SMILES strings stand for the structures.

One data set is described as follows: GI Exposure PK in Mice. The data set is classed as in vivo. To be noted: mouse, male BalbC mice, oral dose of 5 mg/kg. The protocol: The test compound, Example 75, was wetted with ˜0.025% of Tween-20 and triturated in a mortar and pestle, then slowly 0.5% of methyl cellulose was added to make up the final volume to 7.25 mL. The BalbC test animals were subjected to anesthesia induced with a mixture of 5% isoflurane and 0.8-1.5 L/min O2 gas flow. The formulated test compound was then dosed via oral gavage. At various time points (0.5, 1, 2, 4, 6 and 8 h) blood samples (˜100 μL) were collected from portal vein (pre-hepatic) followed by cardiac puncture (circulating) into tubes containing 2% w/v aqueous K2 EDTA solution as per time points. Post blood sampling, the gastro intestine (GI) tissues were collected from the mice at the same time points. The GI tissue was dissected into different parts as duodenum, jejunum, ileum and colon. The separated tissues were washed by flushing with PBS via oral gavage needle to remove GI content. Post collection all the tissues were blotted, weighed and homogenized with PBS buffer (pH 7.4). The blood samples were immediately placed on ice and centrifuged within 30 min at 4° C. for 5 min at 8,000 rpm to obtain plasma. Plasma was transferred by pipettes to pre-labelled centrifuge tubes and immediately transferred to −80° C. until bioanalysis. Tissue samples were placed in pre-labelled container and all samples were kept in −80° C. until homogenized. The homogenate was stored immediately in −80° C. until bioanalysis was conducted. Study samples were thawed to room temperature and 50 μL of sample was aliquoted into pre-labeled vials. To these was added 400 μL of 100% acetonitrile containing an IS (100 ng/mL; warfarin, tolbutamide and loperamide). The vials were mixed well, vortexed for 5 min, followed by centrifugation for 5 min at 14000 rpm at 4° C. The supernatant was separated and same was injected on LC-MS/MS. Plasma and GI tissue levels of test compound were determined by LC-MS analysis using a standard curve in the text matrix. Individual concentration-time data were analyzed using Phoenix WinNonlin (Version 8.1) by the non-compartmental analysis (NCA) method.

Data set [1] has as its system IL-2 stimulated STAT5 phosphorylation on Tyr694 (JAK1/3). Briefly: JAK1/3 cellular target modulation: IL-2 stimulated phospho-STAT5 in human PBMC. The data set is classed as cell-based. The following applies: IL-2 25 ng/ml, read-out: IL2-STAT5 IC50. The procedure, abridged: (§1)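 Thawed human PBMC (200,000/well) preincubated with compound 1 h at 37°C, then stimulated with IL-12 1.7 ng/ml for 25 min, IFNγ 10 ng/ml for 10 min, or IL-2 25 ng/ml for 5 min. Lysate phospho-STAT4 Tyr693 and phospho-STAT5 Tyr694 read by MSD; phospho-STAT1 Tyr701 by sandwich ELISA.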

Data set [2] has as its system IL-12 stimulated STAT4 phosphorylation on Tyr693 (JAK2/TYK2). As to the kind of experiment: JAK2/TYK2 cellular target modulation: IL-12 stimulated phospho-STAT4 in human PBMC. It counts as cell-based. The following applies: IL-12 1.7 ng/ml, read-out: IL12-STAT4 IC50. The procedure, abridged:
as §1

The target of a further data set is T1, JAK2 (Homo sapiens, UniProt O60674).
T1 construct: purchased Thermo Fisher Scientific (SelectScreen service)
As to the kind of experiment: JAK2 enzyme activity assay (Thermo Fisher Selectscreen, Z-lyte). It counts as biochemical. The following applies: read-out: JAK2 Inhibition IC50. The method in brief:
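Z-lyte FRET kinase format: 0.12-0.5 ng JAK2 with 2 μM Tyr 06 peptide in HEPES pH 7.5, 10 mM MgCl2, 1 h reaction, then development reagent. Compounds were run as 11-point dose-response, 2% DMSO vehicle. IC50 came from 4-parameter logistic fit of emission ratio.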

Setting [3] is: portal vein plasma, Portal plasma.

T1 sequence (O60674 whole entry): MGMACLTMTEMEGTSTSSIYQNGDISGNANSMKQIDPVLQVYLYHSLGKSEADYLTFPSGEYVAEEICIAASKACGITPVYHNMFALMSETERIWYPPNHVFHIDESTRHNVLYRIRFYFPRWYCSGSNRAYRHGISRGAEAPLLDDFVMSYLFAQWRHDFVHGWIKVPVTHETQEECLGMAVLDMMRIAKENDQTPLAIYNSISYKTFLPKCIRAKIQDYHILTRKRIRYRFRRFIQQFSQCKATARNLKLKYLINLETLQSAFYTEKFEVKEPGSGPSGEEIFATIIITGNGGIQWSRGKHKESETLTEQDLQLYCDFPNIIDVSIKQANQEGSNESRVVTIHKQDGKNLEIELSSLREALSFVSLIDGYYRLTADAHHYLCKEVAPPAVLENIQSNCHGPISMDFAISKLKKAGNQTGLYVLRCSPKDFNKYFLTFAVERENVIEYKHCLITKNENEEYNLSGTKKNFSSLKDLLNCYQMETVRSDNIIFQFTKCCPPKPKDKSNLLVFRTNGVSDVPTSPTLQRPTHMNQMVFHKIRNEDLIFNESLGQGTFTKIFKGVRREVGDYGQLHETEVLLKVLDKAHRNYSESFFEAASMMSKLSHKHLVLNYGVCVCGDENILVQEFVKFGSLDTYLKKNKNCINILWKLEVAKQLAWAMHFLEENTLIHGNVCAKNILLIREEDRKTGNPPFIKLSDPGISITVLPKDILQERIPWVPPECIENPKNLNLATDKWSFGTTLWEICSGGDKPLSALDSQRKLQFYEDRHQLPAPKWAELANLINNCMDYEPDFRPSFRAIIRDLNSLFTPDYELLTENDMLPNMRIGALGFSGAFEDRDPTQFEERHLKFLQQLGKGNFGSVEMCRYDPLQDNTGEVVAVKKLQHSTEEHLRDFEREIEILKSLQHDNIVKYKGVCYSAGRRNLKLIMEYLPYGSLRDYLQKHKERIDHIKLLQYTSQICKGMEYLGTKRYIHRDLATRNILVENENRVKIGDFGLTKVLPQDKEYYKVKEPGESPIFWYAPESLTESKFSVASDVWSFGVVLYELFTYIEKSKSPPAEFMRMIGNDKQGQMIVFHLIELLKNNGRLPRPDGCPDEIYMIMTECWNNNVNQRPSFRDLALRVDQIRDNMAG

As usually defined, the AUC is concentration integrated over time. Read a low AUC as less exposure. Broadly, the Tmax is the time from dosing to the highest level. As usually defined, the IC50 is the concentration needed to halve the response being measured. For the compound `Cc1nnc(-c2cnc3[nH]ccc3c2N[C@H]2C[C@@H](NS(=O)(=O)c3cccc(C#N)c3)C2)s1` [Example 75, 3-cyano-N-((1s,3s)-3-((5-(5-methyl-1,3,4-thiadiazol-2-yl)-1H-pyrrolo[2,3-b]pyridin-4-yl)amino)cyclobutyl)benzenesulfonamide], the AUC in “GI Exposure PK in Mice” (setting [3]) came out at 247 ng·h/mL; in the data set “GI Exposure PK in Mice” (Colon) it was 5950 ng·h/mL; in “GI Exposure PK in Mice” (Duodenum), 1510 ng·h/mL; in the data set “GI Exposure PK in Mice” (Ileum), 24500 ng·h/mL; in the data set “GI Exposure PK in Mice” (Jejunum), 13300 ng·h/mL. The Tmax in the data set “GI Exposure PK in Mice” (setting [3]) is 2 h; in “GI Exposure PK in Mice” (Colon) it was 4 h; in “GI Exposure PK in Mice” (Duodenum), 0.5 h; in “GI Exposure PK in Mice” (Ileum), 2 h; in the data set “GI Exposure PK in Mice” (Jejunum), 0.5 h. Also, the IC50 in data set [1] is at most 100 nM; in data set [2] it was 100 to 1000 nM; on JAK2, at most 10 nM.
